This note sets out measurements from US11274097B2, “2-(het)aryl-substituted condensed bicyclic heterocycle derivatives as pest control agents” (BAYER CROPSCIENCE AKTIENGESELLSCHAFT, priority 2014, dated 2022).

For data set [1], the system named is Phaedon cochleariae. As to the kind of experiment: Phaedon cochleariae spray test (PHAECO). As to conditions: application rate 500 g/ha; larvae; after 7 days. The class given is in vivo. An outline of the steps:
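Chinese cabbage leaf discs sprayed with compound in acetone/dimethylformamide with alkylaryl polyglycol ether emulsifier in water, dried, then infested with mustard beetle larvae. Efficacy scored after 7 days as % larvae killed (100% = all dead, 0% = none).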

Data set [2] relates to Nephotettix cincticeps. As to the kind of experiment: Nephotettix cincticeps test (NEPHCI). The following applies: 0.16 ppm. Format: in vivo. Here is the method: Nephotettix cincticeps Test (NEPHCI)
(§1) Solvent: 7 parts by weight of dimethylformamide
(§2) Emulsifier: alkylaryl polyglycol ether
(§3) To produce an appropriate active ingredient formulation, 1 part by weight of active ingredient is dissolved using the stated parts by weight of solvent and made up with water containing an emulsifier concentration of 1000 ppm until the desired concentration is attained. To produce further test concentrations, the preparation is diluted with emulsifier-containing water. In the event that addition of ammonium salts or/and penetrants (rapeseed oil methyl ester) is required, these are each pipetted in a concentration of 1000 ppm after the finished formulation solution has been diluted.
Rice plants (Oryza sativa, var. Balilla) are treated by spraying with the active ingredient formulation in the desired concentration and then populated with larvae of the green rice leafhopper (Nephotettix cincticeps).
After the desired time, the kill in % is determined. 100% means that all leafhoppers have been killed; 0% means that none of the leafhoppers have been killed.

Data set [3] deals with Ctenocephalides felis. In words: Ctenocephalides felis oral test (CTECFE). The class given is in vivo. As to conditions: application rate 100 ppm; in citrated cattle blood; after 2 days. As for the experimental part: Ctenocephalides felis-Oral Test ([…]) Solvent: dimethyl sulphoxide For the purpose of producing an appropriate active ingredient formulation, 10 mg of active ingredient are mixed with 0.5 ml of dimethyl sulphoxide. Dilution with citrated cattle blood gives the desired concentration. About 20 unfed adult cat fleas (Ctenocephalides felis) are placed into a chamber which is closed at the top and bottom with gauze. A metal cylinder whose bottom end is closed with parafilm is placed onto the chamber. The cylinder contains the blood/active ingredient preparation, which can be imbibed by the fleas through the parafilm membrane. After 2 days, the kill in % is determined. 100% means that all of the fleas have been killed; 0% means that none of the fleas have been killed.

Data set [4] has as its system Myzus persicae. In words: Myzus persicae spray test (MYZUPE), Chinese cabbage leaf discs. As to conditions: application rate 500 g/ha, after 6 days. Format: in vivo. In outline: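 Leaf discs of Chinese cabbage carrying all aphid stages sprayed with compound formulated in acetone/DMF and diluted in water with 1000 ppm alkylaryl polyglycol ether emulsifier. Mortality scored after 6 days as % efficacy (100% = all aphids killed, 0% = none).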

The nature of data set [5]: log P by HPLC on a reversed-phase column (C 18), EEC Directive 79/831 Annex V.A8. The class given is physicochemical. As to conditions: 55° C. An outline of the steps: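 Reversed-phase C18 HPLC at 55 °C, 10→95% acetonitrile linear gradient. log P (HCOOH) run at pH 2.7 with 0.1% formic acid; log P (neutral) at pH 7.8 with 0.001 M ammonium hydrogencarbonate. Calibrated by retention-time interpolation between unbranched C3–C16 alkan-2-ones of known log P.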

In data set [6] the test system is Aphis gossypii. In words: Aphis gossypii contact test (APHIGO c). The following applies: 2.4 g/ha, 7 dat. The class given is in vivo. Here is the method: Aphis gossypii—Contact Test (APHIGO c)
as §1, §2, §3
One-leaved cotton plants (Gossypium hirsutum) heavily infested by the cotton aphid (Aphis gossypii) are treated by spraying the underside of the leaf with the active ingredient formulation in the desired concentration.
(§4) After the desired time, the kill in % is determined. 100% means that all the aphids have been killed and 0% means that none of the aphids have been killed.

The test system of data set [7] is Myzus persicae. As to the kind of experiment: Myzus persicae translaminar test (MYZUPE t). Format: in vivo. The following applies: 14 dat. Here is the method:
Myzus persicae—Translaminar Test (MYZUPE t)
as §1
Emulsifier: alkylaryl poly glycol ether
as §3
One-leaved bell pepper plants (Capsicum annuum) heavily infested by the green peach aphid (Myzus persicae) are treated by spraying the top side of the leaf with the active ingredient formulation in the desired concentration.
as §4

Data set [8] relates to Ctenocephalides felis. As to the kind of experiment: Ctenocephalides felis in vitro contact test. The following applies: application rate 5 μg/cm^2; adult cat fleas; after 48 h. The class given is in vivo. As for the experimental part: Ctenocephalides felis—In Vitro Contact Test
For the coating of the test tubes, 9 mg of active ingredient are first dissolved in 1 ml of acetone p.a. and then diluted to the desired concentration with acetone p.a. 250 μl of the solution are distributed homogeneously on the inner walls and base of a 25 ml test tube by turning and rocking on an orbital shaker (rocking rotation at 30 rpm for 2 h). With 900 ppm active ingredient solution and internal surface 44.7 cm^2, given homogeneous distribution, an area-based dose of 5 μg/cm^2 is achieved.
After the solvent has evaporated off, the tubes are populated with 5-10 adult cat fleas (Ctenocephalides felis), sealed with a perforated plastic lid and incubated in a horizontal position at room temperature and ambient humidity. After 48 h, efficacy is determined. To this end, the test tubes are stood upright and the fleas are knocked to the base of the tube. Fleas which remain motionless at the base or move in an uncoordinated manner are considered to be dead or moribund.
100% efficacy means that all the fleas were dead or moribund. 0% efficacy means that no fleas were harmed.

The test system of data set [9] is Lucilia cuprina. As to the kind of experiment: Lucilia cuprina test (LUCICU). Format: in vivo. As to conditions: application rate 100 ppm; L1 larvae; after 2 days. As for the experimental part:
Lucilia cuprina Test (LUCICU) Solvent: dimethyl sulphoxide To produce an appropriate active ingredient formulation, 10 mg of active ingredient are mixed with 0.5 ml of dimethyl sulphoxide, and the concentrate is diluted with water to the desired concentration. About 20 L1 larvae of the Australian sheep blowfly (Lucilia cuprina) are transferred into a test vessel containing minced horsemeat and the active ingredient preparation of the desired concentration. After 2 days, the kill in % is determined. 100% means that all the larvae have been killed; 0% means that none of the larvae have been killed.

Take `CCS(=O)(=O)c1cc(C(F)(F)F)cnc1-c1nc2cc(C(F)(F)F)ncc2n1C` [Example I-21]: the efficacy in data set [1] is 100%; in [4] it was 90%; in data set [8], 100%. Moreover, the “% efficacy” value in data set [2] (14 dat) is 90%; in data set [2] (21 dat), 95%; in data set [2] (34 dat) it was 100%; in [6] it was 98%; in data set [7] (2.4 g/ha), 90%; in data set [7] (12 g/ha) it was 98%. The results for the “efficacy (kill)” value in data set [3] and in data set [9] were 90% and 100%, respectively. Further, the LOGP_HCOOH in [5] (acidic range, pH 2.7, 0.1% aqueous formic acid/acetonitrile) is on record as 2.98. For the same compound, in [5] (neutral range, pH 7.8, 0.001 molar aqueous ammonium hydrogencarbonate/acetonitrile), the LOGP_NEUTRAL stood at 2.93.
